Data from PubChem BioAssay AID493077 (The Scripps Research Institute Molecular Screening Center, 2011).
Active and inactive are the calls of the source.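 Rule for the calls: active = Zta binding inhibitor with IC50 at or below 10 µM; inactive = IC50 above 10 µM.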

Biological target: Lytic switch protein BZLF1 (Epstein-Barr virus (strain B95-8)) (UniProt P03206)
Assay: Zta-ZRE interaction blockers, IC50 testing – biochemical, fluorescence polarization, dose response, assay provider, counter-screen for EBNA-1 inhibitor project, late-stage follow-up (AID 493077)
Conditions: purified Zta, Cy5-ZRE DNA

Sequence of Lytic switch protein BZLF1 (Epstein-Barr virus (strain B95-8)) (P03206 whole entry, looked up): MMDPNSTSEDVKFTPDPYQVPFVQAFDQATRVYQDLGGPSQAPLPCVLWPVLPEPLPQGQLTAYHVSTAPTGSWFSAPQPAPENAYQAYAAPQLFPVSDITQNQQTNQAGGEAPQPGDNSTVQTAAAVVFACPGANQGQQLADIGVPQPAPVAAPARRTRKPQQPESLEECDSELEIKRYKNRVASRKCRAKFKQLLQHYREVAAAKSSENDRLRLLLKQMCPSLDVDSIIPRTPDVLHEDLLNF

| Compound | IC50 |
| --- | --- |
| CS(=O)(=O)c1ccc2nc(NC(=O)c3cccc(Cl)c3)sc2c1 | > 111 µM (inactive) |
| Cc1cc(C(=O)CSc2nnnn2-c2ccccc2)c(C)n1C | > 111 µM (inactive) |
| COc1cccc2sc(NC(=O)c3ccc(C)c(C)c3)nc12 | > 111 µM (inactive) |
| COc1cccc(C(=O)Nc2nc3ccc(S(C)(=O)=O)cc3s2)c1 | > 111 µM (inactive) |
| CS(=O)(=O)c1ccc2nc(NC(=O)c3ccc(Cl)cc3)sc2c1 | > 111 µM (inactive) |
| Cc1cc(C(=O)CSc2nnnn2-c2ccc(Cl)cc2)c(C)n1CC1CCCO1 (stereo not given) | > 111 µM (inactive) |
| CCn1c(C)cc(C(=O)CSc2nnnn2-c2ccccc2)c1C | > 111 µM (inactive) |
| COc1ccc(-n2nnnc2SCC(=O)c2cc(C)n(CC3CCCO3)c2C)cc1 (stereo not given) | > 111 µM (inactive) |
| CS(=O)(=O)c1ccc2nc(NC(=O)c3ccccc3Cl)sc2c1 | > 111 µM (inactive) |
| Cc1ccc(C(=O)Nc2nc3ccc(S(C)(=O)=O)cc3s2)cc1 | > 111 µM (inactive) |
| COCCn1c(C)cc(C(=O)CSc2nnnn2-c2ccccc2)c1C | > 111 µM (inactive) |
| Cc1ccc(-n2nnnc2SCC(=O)c2cc(C)n(CC3CCCO3)c2C)cc1 (stereo not given) | > 111 µM (inactive) |
| Cc1ccc(C(=O)Nc2nc3cc(Br)ccc3s2)cc1C | > 111 µM (inactive) |
| Cc1cc(C(=O)CSc2nnnn2C)c(C)n1CC1CCCO1 (stereo not given) | > 111 µM (inactive) |
| CS(=O)(=O)c1ccc2nc(NC(=O)c3ccccc3F)sc2c1 | > 111 µM (inactive) |
| Cc1cccc(C(=O)Nc2nc3ccc(S(C)(=O)=O)cc3s2)c1 | > 111 µM (inactive) |
| Cc1ccc(C(=O)Nc2nc3cc(F)ccc3s2)cc1C | > 111 µM (inactive) |
| Cc1ccc(C(=O)Nc2nc3ccc(Br)cc3s2)cc1C | > 111 µM (inactive) |
| O=C(CSc1nnnn1-c1ccccc1)c1ccn(CC2CCCO2)c1 (stereo not given) | > 111 µM (inactive) |
| Cc1cc(C(=O)CSc2nnnn2C2CC2)c(C)n1CC1CCCO1 (stereo not given) | > 111 µM (inactive) |
| Cc1ccccc1-n1nnnc1SCC(=O)c1cc(C)n(CC2CCCO2)c1C (stereo not given) | > 111 µM (inactive) |
| CS(=O)(=O)c1ccc2nc(NC(=O)c3cccc(F)c3)sc2c1 | > 111 µM (inactive) |
| COc1ccc2nc(NC(=O)c3ccc(C)c(C)c3)sc2c1 | > 111 µM (inactive) |
| COc1ccccc1C(=O)Nc1nc2ccc(S(C)(=O)=O)cc2s1 | > 111 µM (inactive) |
| Cc1cccc(-n2nnnc2SCC(=O)c2cc(C)n(CC3CCCO3)c2C)c1 (stereo not given) | > 111 µM (inactive) |
| COc1ccc(C(=O)Nc2nc3ccc(S(C)(=O)=O)cc3s2)cc1 | > 111 µM (inactive) |
| Cc1cc(C(=O)CSc2nnnn2-c2ccccc2)c(C)n1Cc1cccs1 | > 111 µM (inactive) |
| COc1ccc2sc(NC(=O)c3ccc(C)c(C)c3)nc2c1 | > 111 µM (inactive) |
| Cc1ccccc1C(=O)Nc1nc2ccc(S(C)(=O)=O)cc2s1 | > 111 µM (inactive) |
| Cc1cc(C(=O)CSc2nnnn2-c2cccc(F)c2)c(C)n1CC1CCCO1 (stereo not given) | > 111 µM (inactive) |
